# Measured values published in article PMC10644720 (Frontiers in Pharmacology, 2023).
# Where two headings read alike, the source gives them in different places.
# What was measured:
# [1] = system: human washed platelets; assay: Platelet ATP release assay (luciferin/luciferase); format: cell-based; details: for IC50: Homo sapiens, Platelet
# Procedure: Blood was collected from a median cubital vein using a 3.8% sodium citrate anticoagulation tube with a 1:9 dilution ratio. The platelets were washed using a previously described method with slight modification ([Babur et al., 2020]; [Uphaus et al., 2022]). The blood was centrifuged at room temperature at 300 × g for 10 min to separate platelet-rich plasma (PRP). PRP was added to 50 ng/mL of PGE1 and 5 mM EDTA, centrifuged at 2,000 × g for 2 min at room temperature, and the platelet precipitate was obtained after discarding the supernatant. The modified HEPES-Tyrode’s buffer (20 mM 4-(2-Hydroxyethyl)-1-piperazine ethane sulfonic acid [HEPES], pH 7.3, 129 mM NaCl, 2.9 mM KCl, 12 mM NaHCO3, 0.34 mM Na2HPO4, 20 mM HEPES, 5 mM D-Glucose, 1 mM MgCl2) was used to resuspend the platelets, added with 50 ng/mL PGE1 and 5 mM EDTA, and the platelets were washed by centrifugation at 2,000 ×g for 2 min at room temperature. The washed platelets (WP) were resuspended using modified HEPES-Tyrode’s buffer, and the platelet count was adjusted to 150–200 × 10^9/L.
# Platelet aggregation and ATP release were detected using the Chrono-Log platelet aggregation instrument (Chrono-Log Corp., Havertown, Pennsylvania, United States), as previously reported ([Babur et al., 2020]). […] In addition, 1 mM CaCl2 and different platelet activators (ADP, collagen, and thrombin; Chrono-Log Corp., Havertown, Pennsylvania, United States; U46619, from Sigma, St. Louis, MO, United States; convulxin, sc-202554 from Santa Cruz Biotechnology, Santa Cruz, CA, United States) were added to each group before the start of the aggregation assay. For the ATP release experiments, the platelets were incubated with 50 ng/mL luciferin and D-luciferase (Cat No. 395; Chrono-Log Corp.) for 2 min before the addition of activators. The platelet aggregation and ATP release curves were traced during experiments.
# [2] = system: thrombosis and infarct area; design: method as in Liu et al., 2022; details: rats; gavage for 7 days at 20 mg/kg/day; ref Liu et al., 2022; cited from earlier work
# [3] = system: carotid thrombosis; design: method as in Choi et al. (2015); details: mice; ref Choi et al. (2015); cited from earlier work
# [4] = system: human washed platelets; assay: Platelet intracellular Ca2+ release assay (Fluo-3AM); format: cell-based; details: collagen (10 μg/mL)- and convulxin (5 ng/mL)-induced
# Procedure: The assay was performed as previously reported with minor modifications ([Arthur et al., 2012]; [Ye et al., 2020]). Briefly, WPs (500 × 10^9/L) were labeled with 5 μM Fluo-3AM (Cat No. IF0150; Solarbio) or 10 μM DCFH-DA (Cat No. D6883; Sigma, St. Louis, MO, United States) at 37°C for 30 min protected from light. […] In addition, 1 mM CaCl2 and collagen or convulxin were added to start the reaction. Ca^2+ release and ROS production were analyzed using a Fluoroskan Ascent fluorometer (Thermo Fisher, Waltham, Massachusetts, US) at excitation (ex)/emission (em) = 490/530 nm, and the curves were plotted in real-time.
# [5] = system: thrombin; design: method as in Choi et al. (2015); details: ref Choi et al. (2015); cited from earlier work
# [6] = system: GPVI signaling; assay: Western blot of ITAM and MAPK signaling molecules; format: cell-based, human; details: convulxin-induced
# Procedure: A lysis buffer (5x, PBS, PH7.4, comprising 2.5% sodium dodecyl sulfate [SDS], 5% deoxycholate, 5% vol/vol Triton X-100, phosphatase and proteinase inhibitors cocktails) was used to lyse the cells on ice for 30 min. The platelet lysate was centrifuged at 12,000 rpm for 10 min at 4°C. The supernatant was added to 5× protein loading buffer and boiled. The proteins were separated by 10% SDS-PAGE gels and transferred to membranes. The PVDF membranes were blocked in EveryBlot Blocking buffer (Cat No. 12010020; Bio-Rad, Hercules, CA, United States) for 10 min. […] The intensity of the target bands was assessed by ImageJ software.
smiles,measurement,setting,value
O=c1cc(-c2ccc(O)c(O)c2)oc2cc(O)cc(O)c12 [Luteolin],IC50,"[1]; read-out: IC50, inhibition of ATP release, convulxin-induced",2.37 µM
same,IC50,"[1]; collagen-induced, read-out: IC50, inhibition of ATP release",2.67 µM
same,effect on platelet ATP release,"[1]; convulxin- and collagen-induced, concentration-dependent",significantly inhibited
same,thrombosis and infarct area,[2],significantly reduce
same,FeCl3-induced carotid thrombosis,[3],significantly inhibits
same,platelet calcium release,[4],dose-dependently inhibited
same,thrombin activity,[5],effectively inhibits
same,phosphorylation of MAPK and ITAM,"[6]; Erk 1/2, SAPK/JNK, p38 MAPK",significant inhibitory effect
same,"phosphorylation of Src, Syk, PLCγ2, Akt and GSK-3β",[6]; non-aggregating conditions,inhibited
